# Tests used:
# L. mexicana amazonentis = experiment: In vitro antileishmanial model: intracellular amastigotes in peritoneal macrophages; format: cell-based; conditions: for Nombre d'amastigotes (b) (% des contrôles): 35°, mean (SD) of 4
# Description: Le modèle in vitro utilisé, consiste à développer les formes intracellulaires (amastigotes) de Leishmania mexicana anazonentis dans des macrophages péritonéaux de souris Balb/c injectés initialement par les formes promastigotes.
# La culture de macrophages est obtenue à partir des cellules de la cavité péritonéale.
# Brièvement, la cavité péritonéale est lavée plusieurs fois avec du milieu RPMI 1640 contenant de la pénicilline (100 U/ml) et de la streptomycine (100 µg/ml) additionné de glutamine (2 mM) et de 20 % de sérum de veau foetal décomplémenté à la chaleur. Ce milieu constitue le milieu de culture complet. Après centrifugation de la suspension cellulaire ainsi obtenue, les cellules sont resuspendues dans le même milieu, puis incubées 1 heure à 37° C en présence de 5 % C02 dans des boîtes de Pétri. Les macrophages adhérents sont ensuite lavés plusieurs fois, détachés de leur support puis comptés. Un volume cellulaire contenant 2,5 x 10^5 macrophages est ajouté dans chaque puits (16 mm de diamètre) des boîtes de culture contenant chacun une lamelle en verre. Les cellules sont ainsi cultivées 3 jours à 37°C. Avant d'être utilisées, les cultures sont lavées 2 fois pour retirer les cellules non adhérentes. Dans ces conditions, les cultures contiennent 1,5 à 2,0 x 10^5 macrophages.
# La souche de L. mexicana amazonentis est maintenue sous forme promastigote à 27° C par passage successif dans du milieu Schneider Drosophila contenant 100 µg/ml de gentamycine, 2 mM de glutamine, 5 gg/ml d'hémine et additionné de 20 % de sérum de veau foetal décomplémenté.
# Une suspension de promastigotes en phase stationnaire est ajoutée à chaque culture de macrophages à raison de 4 parasites par cellule. Les cultures sont incubées à 34,5°-35°C (5 % C02-95 % air) pendant 7 heures. Les cultures infectées sont lavées avec du milieu sans sérum jusqu'à ce qu'il y ait moins de un parasite par 20 macrophages. Une culture (1 boîte à 4 puits) est fixée et colorée au May-Grûnwald Giemsa pour contrôler l'infection (jour 0). S'il y a moins de 50 organismes intracellulaires par 100 macrophages, l'infection est considérée trop faible pour une interprétation correcte des résultats. 24 heures après l'infection, le milieu de culture est remplacé par du milieu frais contenant ou non un agent thérapeutique. Nous avons choisi d'utiliser le dérivé oléoyl-kétoconazole seul ou incorporé à des LSL natives ou acétylées. Le milieu (± l'agent thérapeutique) est renouvelé au jour 3. Au jour 6, des cultures de macrophages Infectés sont fixées, colorées, séchées, la lamelle de verre est ensuite montée sur une lame pour l'observation microscopique.
# Le nombre d'amastigotes contenu dans 100 à 200 macrophages est déterminé pour chaque culture. Le nombre moyen d'organismes par 100 macrophages au jour 6 dans les cultures traitées est exprimé en pourcentage du nombre moyen d'organismes par 100 macrophages dans les cultures contrôles au jour 6 (% de survie). Les cultures contrôles contiennent en moyenne 300 à 400 parasites par 100 macrophages; 60 % en moyenne des macrophages sont infectés et contiennent de 5 à 7 amastigotes.
# [1] = Stability of reconstituted LDL in presence of plasma (KBr gradient fractionation); format: in vitro ADME; conditions: 1 ml de plasma humain, trois heures à 37° C
# Description: Dans un milieu biologique aussi complexe que le plasma, de nombreux constituants peuvent, à priori, inte) ragir avec les LDL rec. CT040013 et provoquer leur déstabilisation ou entraîner une libération du principe actif incorporé. Aussi, une première étude a été entreprise pour essayerde caractériser le comportement des LDL rec. CT040013 lorsque ces dernières sont mises en présence de plasma.
# Deux préparations ont été testées : les LDL rec. O.CHOL [^14C] et les LDL rec" CT040013. 500 µl de ces différentes préparations sont incubées avec 1 ml de plasma humain pendant trois heures à 37° C. Au terme de cette incubation, les échantillons sont fractionnés par ultracentrifugation sur gradient discontinu en KBr. Par aspiration, on récupère les fractions correspondantes aux différentes densités, et sur chacune de celle-ci, le cholestérol, les phospholipides, l'oléate de cholestérol [^14C] sont dosés (figure 15). Le profil en cholestérol total et en phospholipides est identique dans les deux gradients. On y distingue trois pics correspondants aux trois classes de lipoprotéines, par ordre décroissant de densité : HDL, LDL, et VLDL.
# [2] = Incorporation of antifungal agent into LDL by NaDoc dissociation-reconstitution; format: physicochemical; conditions: 1,6 mg LDL, 482 µg of agent, dialysis
# Description: On ajoute à 1,6 mg de LDL préalablement dialysées contre le tampon C, 10 mg de NaDoc solide et on laisse réagir 30 minutes à température ambiante. On ajoute à la préparation 2,8 ml d'une solution NaDoc 20 mM, Na2COs 50 mM, NaCi 50 mM, pH 10 contenant 482 µg de CT4000A ou 482 µg de CT040013. Les échantillons sont dialysés à 4° C contre trois fois 1 litre de tampon B.
# Le pourcentage de récupération en LDL, en CT040013 et en NaDoc est déterminé au terme du processus de reconstitution (figure 13).
# Il est également possible de rapporter la masse de substance incorporée par mole de LDL. Les résultats obtenus pour le CT04000A et la CT040013 sont respectivement de 0,4 et de 208 moles incorporés par mole de LDL.
# [3] = Leishmania mexicana, Peritoneal macrophage, read-out: Activité (c) (% inhibition)
compound,measurement,setting,value
CCCCCCCC/C=C\CCCCCCCC(=O)N1CCN(c2ccc(OC[C@H]3CO[C@](Cn4ccnc4)(c4ccc(Cl)cc4Cl)O3)cc2)CC1 [KO1],inhibition at 0.5 µg/mL,L. mexicana amazonentis; [3],28%
same,inhibition at 1 µg/mL,L. mexicana amazonentis; [3],43%
same,inhibition at 1.4 µg/mL,L. mexicana amazonentis; [3],50%
same,inhibition at 2 µg/mL,L. mexicana amazonentis; [3],56%
same,inhibition at 2.5 µg/mL,L. mexicana amazonentis; [3],64%
same,inhibition at 11 µg/mL,L. mexicana amazonentis; [3],90%
same,index thérapeutique (rapport de ED50 kéto sur ED50 K01),L. mexicana amazonentis; compared with kétoconazole,9
same,Nombre d'amastigotes (b) (% des contrôles),"L. mexicana amazonentis; dose 0,5 µg/ml, 6 jours",72 (6) %
same,Nombre d'amastigotes (b) (% des contrôles),"L. mexicana amazonentis; dose 1,0 µg/ml, 6 jours",57 (3) %
same,Nombre d'amastigotes (b) (% des contrôles),"L. mexicana amazonentis; dose 1,4 µg/ml, 6 jours",50 (4) %
same,Nombre d'amastigotes (b) (% des contrôles),"L. mexicana amazonentis; dose 2,0 µg/ml, 6 jours",44 (2) %
same,Nombre d'amastigotes (b) (% des contrôles),"L. mexicana amazonentis; dose 2,5 µg/ml, 6 jours",36 (6) %
same,Nombre d'amastigotes (b) (% des contrôles),"L. mexicana amazonentis; dose 11,0 µg/ml, 6 jours",10 (4) %
same,ED50 (50 % d'inhibition),"L. mexicana amazonentis; intracellular amastigotes, 6 jours","1,4 µg KO1.ml"
same,association à l'albumine,[1],il n'a pas été possible de mettre en évidence une association
same,relarguage / redistribution de la molécule incorporée en présence de plasma,[1],n'est pas pris en charge par ces protéines de transfert
same,moles incorporés par mole de LDL,[2],208 moles incorporés par mole de LDL

# From patent EP0277849A1, “Incorporation of one or more lipophilic, active principles into lipoproteins, lipoproteins obtained and pharmaceutical compositions containing them” (IRE-CELLTARG S.A., priority 1987, dated 1988)
